The values below come from PMC10067442, “In vivo quantitative high-throughput screening for drug discovery and comparative toxicology” (Disease Models & Mechanisms, 2023).

Usually EC50 stands for the concentration at which the effect is half-maximal.

The test system of test [1] is C. elegans strain PE254. In words: C. elegans LSC qHTS viability assay, Anti-Infectives library primary screen (BG-fed, 384-well). The following applies: Caenorhabditis elegans, read-out: Treatment day, EC50 (GFP area). In kind it is in vivo, Caenorhabditis elegans. How it is done:
Levamisole, ivermectin and albendazole were purchased from Sigma-Aldrich. Stock solutions of all compounds were prepared at 10 mM in DMSO, and ivermectin was diluted to a 10 µM working dilution in DMSO. […] Of these, 284 (38%) are approved for clinical use in the United States, 32 (4%) were previously marketed for use in the United States, and 62 (8%) are used clinically outside of the United States. […] DMSO stock solutions of were arrayed in Echo-qualified 384-well cyclic olefin copolymer plates (Labcyte) in qHTS inter-plate dilution with seven concentrations, 1:5 dilution, resulting in a final concentration range of 2.5–20 mM high concentration titrated to 160 nM to 1.28 µM low concentration ([Yasgar et al., 2008]). ‘Assay-ready’ plates were prepared in 384-well uClear microtiter plates (Greiner BioOne), with compounds acoustically dispensed at 250 nl per well with an Echo 555 in the above inter-plate titration array. Two plates with DMSO added across the compound field at the same volume were prepared as screening controls (‘uniformity plates’). DMSO vehicle control was added to every well of column 1, and levamisole cytotoxicity control was added at a high concentration of 10 mM in wells 1–8 and titrated 1:3, starting at a high concentration of 10 mM to 4.57 µM in wells 9–16 of column 2 of every plate. Additionally, ivermectin, levamisol and albendazole were plated as internal controls on one assay plate in 16-point, 1:2 titration down six replicate columns per compound, starting at a high concentration of 10 µM (ivermectin) or 10 mM (levamisole and albendazole). Assay-ready plates were sealed and frozen at −80°C until use.
C. elegans strain PE254 were collected from 12 NGM plates as above, transferred to 250 ml S medium supplemented with OP50 E. coli pellet collected from 2 l overnight culture, and grown for 5 days at 21°C with vigorous shaking in an Incu-Shaker Mini Shaking Incubator (Benchmark Scientific, Inc.). Eggs were axenized as above and hatched overnight in M9 buffer at 21°C and shaken at 65 rpm. Assay ready plates were thawed and allowed to equilibrate to ambient temperature. BGs in S medium (30 µl/well) at an OD600=0.85 were manually added across plates with a Capp pipette. Synchronized L1 worms from above were collected, diluted and plated at ten worms/30 µl/well with a Capp pipette into assay-ready microtiter plates pre-plated with BGs and compounds (240-fold dilution). […] No ethical approval or guidance is needed for working with nematodes.
Data from the Anti-Infectives screen were normalized by plate to corresponding intra-plate controls as previously described ([Inglese et al., 2006]). Assay statistics were calculated using the same respective controls. Total object ‘GFP’ area (µm^2) and number of worms were normalized to the average signal of DMSO-treated wells as zero percent neutral control, and the average signal of 41.7 µM levamisole-treated wells as −100% activity. In-house software was used to fit the resulting inter-plate titration data to the standard Hill equation, and concentration–response curves were classified by activity as previously described ([Southall et al., 2009]). Curve fits assignments of −1.1, −1.2, −2.1, −2.2 and −3 were considered active and visually confirmed.
Background: qHTS replaces the single test concentration by a dilution series.

For test [2], the system named is C. elegans strain PE254. The experiment in a line: 384-well LSC C. elegans viability assay, life-stage sorted worms on BGs or OP50 live bacteria (assay development). In kind it is in vivo, Caenorhabditis elegans. The following applies: worms grown on BGs; as early as day 1 for L4 and adult worms, by day 2 for most life stages.
Description: Strain PE254 worms were collected from eight NGM plates as above. The mixed population of C. elegans was resuspended in 30 ml 1× S basal buffer and plated at ten GFP worms per well of each life stage into respective wells of 384-well uClear microtiter plates with the COPAS biosorter run with the calibration protocol and settings from above. E. coli BGs diluted to OD600=0.6 or OP50 live bacteria diluted to OD600=0.05, 0.10, 0.15 or 0.2 in S medium were added to respective plates at 30 μl per well manually with a Capp pipette (BioVentures, Inc.). […] Plates were covered with a Breath-Easy seal (Thermo Fisher Scientific) and weighted metal lids with gas exchange pores (Fujifilm Wako Automation Corp.). Worms were grown in the presence of compound or DMSO for 7 days at 21°C and 65 rpm in an Incu-Shaker (Benchmark Scientific). Worms were imaged every 24–72 h on an Acumen eX3 laser scanning cytometer (STP Labtech). Plates were read with default reader settings, with scan 1 488 nm laser, green (FL-2) detection channel, 400 voltage, sensitivity of 2 and triggered in the green PMT. Green objects detected by the reader were identified as worms based on the filtered FL-2 object parameters perimeter (100-2200), area (1000-180,000), and peak intensity (150-1500). Viability was monitored as an increase in GFP fluorescence quantified as total number and total object area (µm^2) of FL-2 filtered objects per well. LSC data were collected using cellista 4 (version 4.3.4.0, STP Labtech).
Concentration–response curves for average total filtered FL-2 object area (‘GFP area’) and total filtered FL-2 number of objects (‘number of worms’) for each respective compound were fit with the nonlinear regression log (agonist) versus response–variable slope (four parameters) algorithm in Prism (GraphPad Software). Hillslope and/or EC50 constraints were applied as needed to all life stages per compound across the 7-day time course, and EC50 values were calculated. […] (3) [drawing 3] where σ is the mean signal and µ is the standard deviation for the treated (p) or neutral (n) controls.
Test [3] deals with C. elegans. Set-up: method as in Sant'anna et al., 2013. The settings on record: all life stages, post 7-day treatment; ref Sant'anna et al., 2013; read-out: EC50 (toxic); cited from earlier work.

SMILES strings stand for the structures. Read-outs that look alike come from different tables or passages of the source. Some results are limits rather than exact numbers.

For `CCCSc1ccc2nc(NC(=O)OC)[nH]c2c1` [Albendazole], the EC50 is 200 ± 300 nM in test [1] (72 h); 800 ± 700 nM in test [1] (96 h); 900 ± 400 nM in test [1] (120 h); 800 ± 400 nM in test [1] (144 h); 1100 ± 600 nM in test [1] (168 h); over 10000 nM in test [3]. In addition, the “toxicity (in words)” value in test [2] is reported as “significant toxicity”.
